Consider 15 compounds from patent US7767648B2, “Tissue specific prodrugs” (priority 2000, dated 2010).

Numbered stars: 1 amine (or outer) side, 2 acyl side, 3 side chain; on linkers, the order of the positions; unused ones are H or OH. Square brackets hold non-standard residues; d marks the D form. Peptide text beside a SMILES is read from it. γGlu = O=C(O)[C@H](CCC(=O)[*:2])N[*:1]

Data set [1] can be described thus: Stability of PSMA substrates in human plasma, 18 hour incubation, HPLC. Type of data set: in vitro ADME. The note with it: for stability in serum (in words): species not stated; for remaining at 18 h / % APA-Glu or -Asp: 18 hour incubation in human plasma; for remaining at 18 h: HPLC peak area of starting material over all peaks, read-out: % Prodrug Remaining; for % APA-Glu or -Asp: hydrolysis of substrate to APA-Asp or APA-Glu. The source says:
(§1) In order that the prodrugs can be administered systemically via the blood, their stability in sera must be sufficiently high to avoid hydrolysis or other degradative processes which may occur prior to the prodrugs reaching their target tissues. In addition to GGH activity, a human blood plasma glutamate carboxypeptidase (PGCP) that has significant sequence homology to PSMA and glutamate carboxypeptidase activity has been identified. Therefore, to assay hydrolysis by GGH and other serum carboxypeptidases like PGCP, the APA-Glu*Glu*Glu*Glu*Asp, APA-Glu*Glu*Glu*Glu*Gln, and APA-Glu*Glu*Glu*Glu*Glu substrates were incubated in human and mouse plasma and hydrolysis determined by HPLC analysis after an 18-hour incubation, as shown in Table 3. As noted, GGH efficiently hydrolyzes poly-γ-glutamate chains as well as poly-γ-glutamated folate and methotrexate. GGH, however, is unable to hydrolyze α-linked peptides.
(§2) In Tables 1-3, to simplify identification of the type of amino acid linkages employed, α-linkages are denoted by a hyphen (for example, Glu-Glu) and all side-chain linkages are denoted by a star (for example, Glu*Glu). The column labeled “% PSMA Hydrolysis” refers to the percentage of hydrolysis of a substrate to APA-Asp or to APS-Glu by purified PSMA. The column labeled “% APA-Asp or -Glu” refers to the percentage of hydrolysis of substrate to APA-Asp or APA-Glu. The column labeled “% Prodrug Remaining” refers to the area of the HPLC peak attributable to starting material divided by the areas of HPLC peaks attributable to starting material, intermediate products, and final products. […] “ND” means “not determined,” in that the experiment was not performed.

Data set [2] is described as follows: Stability of PSMA substrates in mouse plasma, 18 hour incubation, HPLC. The note with it: for % APA-Glu or -Asp: 18 hour incubation in mouse plasma. It is filed as in vitro ADME.
Excerpt: as §1, §2

Data set [3] concerns the target PSMA (Homo sapiens, UniProt Q04609). Briefly: Hydrolysis of methotrexate analog substrates by purified PSMA (HPLC). Type of data set: biochemical. The note with it: for % PSMA hydrolysis 24 h / % PSMA hydrolysis 48 h: Table 3, hydrolysis of substrate to APA-Asp or APA-Glu by purified PSMA. The protocol: The extent to which various peptide substrates are hydrolyzed by PSMA was determined by synthesizing a series of methotrexate analogs including the 4-N[N-2,4-diamino-6-pteridinyl-methyl)-N-methylamino-benzoate] (APA) portion of methotrexate coupled to a variety of peptides. Poly-glutamated methotrexate is available from Schirks Laboratories in Jona, Switzerland.
A series of α-linked peptides were investigated for PSMA hydrolysis. […] In Tables 1-3, to simplify identification of the type of amino acid linkages employed, α-linkages are denoted by a hyphen (for example, Glu-Glu) and all side-chain linkages are denoted by a star (for example, Glu*Glu).
Substrate specificity for the pteroyl poly-γ-glutamyl carboxypeptidase (folate hydrolase) activity of PSMA was determined by synthesizing a series of γ-linked methotrexate analogs and assaying them for hydrolysis by PSMA.
as §2

Data set [4] concerns prostate cancer cells. Briefly: Induction of apoptotic death of prostate cancer cells. It is filed as cell-based. The note with it: cell-proliferation independent. How it is done: The TG analog was synthesized by coupling the primary amine of 12ADT to the γ-carboxyl of glutamate, leaving the α-carboxyl of glutamate free to link to other amino acids, as shown in FIG. 2. The 12-ADT*Glu is a potent, cell-proliferation independent inducer of the apoptotic death of prostate cancer cells (LD50 is approximately 50 nM). The corresponding analog consisting of 12-ADT linked to the α-carboxyl of glutamate (that is, 12ADT-Glu) is also a suitable analog, as shown in FIG. 2. The prodrug containing 12ADT*Glu coupled to the longer amino acid chain (that is, 12ADT*Glu-Glu*Glu*Asp-Glu) can also be a suitable substrate. The 12ADT-Glu*Glu*Glu*Asp-Glu prodrug may also be cleaved by PSMA, which may cleave the last peptide bond in the absence of a free α-carboxyl. […] This analog can then be linked via either the α- or γ-carboxyl to a peptide chain.

Data set [5] is described as follows: Cytotoxic activity of thapsigargin and its debutanoyl derivative. Type of data set: cell-based. To be noted: cell line not stated. How it is done:
The starting material for all the synthesized analogs is 8-O-debutanoylthapsigargin, which is easily available by triethylamine catalyzed methanolysis of thapsigargin. Removal of the butanoyl results in loss of cytotoxic activity with an LD50 of >50 μM compared to <100 nM for thapsigargin. Anhydrides of dicarboxylic acids of various lengths afforded analogs in which the acyl group attached to the O-8 ended in a free carboxylic acid. A dicyclohexylcarbodiimide (DCCI) promoted coupling of a 2,4-diaminoarene to the carboxylic acid analogs affords the derivatives in which contain a primary aromatic amine as a potential coupling point for additional moeities.

For data set [6], the system named is TSU cancer cells. Briefly: Loss of clonogenic survival of TSU cancer cells after exposure to methotrexate analogs. It is filed as cell-based. To be noted: 48 hours of exposure. The source says:
A number of methotrexate analogs were studied for their effect on clonogenic survival of TSU cancer cells. One such analog is L-aspartic acid, N-[4-[[(2,4-diamino-5-ethyl-6-quiazolinyl)methyl]amino]benzoyl]-sesquihydrate, also known as NSC 184692, available from the NCI Developmental Therapeutics Branch. Another compound is L-aspartic acid, N-[2-chloro-5-[[(2,4-diamino-5-methyl-6-quiazolinyl)methyl]amino]benzoyl]-dihydrate, also known as NSC 132483. Another compound is L-aspartic acid, N-[2-chloro-4-[[(2,4-diamino-6-pteridinyl)methyl]amino]benzoyl]-monohydrate, also known as NSC 134033.
The loss of clonogenic survival following treatment of TSU cancer cells with NSC 184692 and 132483 has been investigated after 48 hours of exposure, and the results are listed in Table 4.

Chain of PSMA (Q04609 whole entry): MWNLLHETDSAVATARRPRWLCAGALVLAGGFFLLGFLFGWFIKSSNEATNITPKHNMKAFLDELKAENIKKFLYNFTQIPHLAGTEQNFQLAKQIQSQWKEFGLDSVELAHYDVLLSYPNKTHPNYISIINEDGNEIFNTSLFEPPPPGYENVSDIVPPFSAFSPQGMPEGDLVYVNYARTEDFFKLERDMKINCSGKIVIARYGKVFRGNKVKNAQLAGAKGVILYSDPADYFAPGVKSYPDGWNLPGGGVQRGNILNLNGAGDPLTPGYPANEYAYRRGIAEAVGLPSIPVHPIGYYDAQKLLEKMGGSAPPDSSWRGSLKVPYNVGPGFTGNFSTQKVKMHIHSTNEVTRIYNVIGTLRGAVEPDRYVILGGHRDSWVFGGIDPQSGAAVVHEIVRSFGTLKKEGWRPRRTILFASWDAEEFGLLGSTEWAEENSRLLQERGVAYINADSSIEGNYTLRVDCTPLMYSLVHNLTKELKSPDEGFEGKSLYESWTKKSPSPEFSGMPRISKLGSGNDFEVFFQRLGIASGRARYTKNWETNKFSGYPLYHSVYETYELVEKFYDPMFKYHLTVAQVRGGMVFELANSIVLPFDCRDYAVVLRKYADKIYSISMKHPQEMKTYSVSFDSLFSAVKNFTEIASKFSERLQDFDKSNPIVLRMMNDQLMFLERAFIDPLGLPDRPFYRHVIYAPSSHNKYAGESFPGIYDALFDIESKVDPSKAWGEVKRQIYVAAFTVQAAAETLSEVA

Turning to `N[C@@H](CCC(=O)N[C@@H](CCC(=O)N[C@@H](CCC(=O)N[C@@H](CC(=O)O)C(=O)N[C@@H](CCC(=O)O)C(=O)O)C(=O)O)C(=O)O)C(=O)O` [Glu*Glu*Glu*Asp-Glu] ({γGlu-γGlu-γGlu}-Asp-Glu-OH; C-terminus assumed), the “stability in serum (in words)” value in data set [1] is reported as “high stability in serum”.

As to `CN(Cc1cnc2nc(N)nc(N)c2n1)c1ccc(C(=O)N[C@@H](CCC(=O)N[C@@H](CCC(=O)N[C@@H](CCC(=O)N[C@@H](CCC(=O)N[C@@H](CCC(=O)O)C(=O)O)C(=O)O)C(=O)O)C(=O)O)C(=O)O)cc1` [APA-Glu*Glu*Glu*Glu*Glu, reference compound], in data set [2], the “% APA-Glu or -Asp” value amounted to 68%. In addition, in data set [1], the amount remaining (commonly what is left of the initial amount, in per cent) at 18 h worked out at 11% and the “% APA-Glu or -Asp” value is 11%. Moreover, in data set [3], the “% PSMA hydrolysis 24 h” value worked out at 96% and the “% PSMA hydrolysis 48 h” value was determined as 100%.

For “N-L-γ-glutamyl-12-aminododecanoyl-8-0-debutanoyl Thapsigargin [12-ADT*Glu]”, the “LD50 (apoptotic death of prostate cancer cells)” value in data set [4] is listed as “approximately 50 nM”.

On to `N[C@@H](CC(=O)O)C(=O)N[C@@H](CCC(=O)N[C@@H](CCC(=O)N[C@@H](CC(=O)O)C(=O)N[C@@H](CCC(=O)O)C(=O)O)C(=O)O)C(=O)O` [Asp-Glu*Glu*Asp-Glu] (H-D[γGlu][γGlu]DE-OH; C-terminus assumed), for which the “stability to hydrolysis in mouse plasma (in words)” value in data set [2] (mouse plasma) is “completely stable to hydrolysis”. In addition, the “stability to hydrolysis in human plasma (in words)” value in data set [1] (human plasma) is reported as “completely stable to hydrolysis”.

For `O=C(O)c1cc[c]([Hg+])cc1.[OH-]` [p-hydroxymercuribenzoate, reference compound], in data set [2] (addition of the non-specific inhibitor of GGH and other cysteine proteases), the “effect of added inhibitor on hydrolysis of the substrates in plasma” value is “complete inhibition of hydrolysis”.

With `C/C=C(/C)C(=O)O[C@H]1C(C)=C2[C@H]([C@@H]1OC(=O)CCCCCCC)[C@@](C)(OC(C)=O)C[C@H](OC(=O)CCC)[C@@]1(O)[C@H]2OC(=O)[C@@]1(C)O` [thapsigargin], the “LD50 (cytotoxic activity)” value in data set [5] is under 0.1 µM.

`NC(=O)CC[C@H](NC(=O)[C@H](CC(=O)O)NC(=O)CC[C@H](NC(=O)CC[C@H](NC(=O)CC[C@H](N)C(=O)O)C(=O)O)C(=O)O)C(=O)O` [Glu*Glu*Glu*Asp-Gln] ({γGlu-γGlu-γGlu}-Asp-Gln-OH; C-terminus assumed): the “stability in serum (in words)” value in data set [1] is reported as “high stability in serum”.

`CN(Cc1cnc2nc(N)nc(N)c2n1)c1ccc(C(=O)N[C@@H](CCC(=O)N[C@@H](CCC(=O)N[C@@H](CCC(=O)N[C@@H](CCC(=O)N[C@@H](CCC(N)=O)C(=O)O)C(=O)O)C(=O)O)C(=O)O)C(=O)O)cc1` [APA-Glu*Glu*Glu*Glu*Gln]: the “% APA-Glu or -Asp” value in data set [2] is reported as 62%. In data set [1], the amount remaining at 18 h was found to be 26% and the “% APA-Glu or -Asp” value stood at 6%. Besides, in data set [3], the “% PSMA hydrolysis 24 h” value came out at 97% and the “% PSMA hydrolysis 48 h” value was determined as 100%. The “hydrolysis by PSMA (in words)” value in data set [3] (text summary of the tables) is reported as “to a greater extent after 24 hours than any of the γ-linked dipeptide analogs”.

As to `CCc1c(CNc2ccc(C(=O)N[C@@H](CC(=O)O)C(=O)O)cc2)ccc2nc(N)nc(N)c12.CCc1c(CNc2ccc(C(=O)N[C@@H](CC(=O)O)C(=O)O)cc2)ccc2nc(N)nc(N)c12.O.O.O` [NSC 184692, L-aspartic acid, N-[4-[[(2,4-diamino-5-ethyl-6-quiazolinyl)methyl]amino]benzoyl]-sesquihydrate], the “Loss of clonogenic survival” value in data set [6] (0.01 μmolar) worked out at 17%; in data set [6] (0.05 μmolar) it was 44%; in data set [6] (0.1 μmolar), 57%; in data set [6] (0.5 μmolar), 82%; in data set [6] (1 μmolar), 88%; in data set [6] (5 μmolar), 93%.

Take `CN(Cc1cnc2nc(N)nc(N)c2n1)c1ccc(C(=O)N[C@@H](CCC(=O)N[C@@H](CCC(=O)N[C@@H](CCC(=O)N[C@@H](CC(=O)O)C(=O)N[C@@H](CCC(=O)O)C(=O)O)C(=O)O)C(=O)O)C(=O)O)cc1` [APA-Glu*Glu*Glu*Asp-Glu]: the “% APA-Glu or -Asp” value in data set [2] came to 5%. For the same compound, in data set [1], the amount remaining at 18 h is 57% and the “% APA-Glu or -Asp” value is listed as 23%.

In the case of `CN(Cc1cnc2nc(N)nc(N)c2n1)c1ccc(C(=O)N[C@@H](CC(=O)O)C(=O)N[C@@H](CCC(=O)O)C(=O)O)cc1` [APA-Asp-Glu], in data set [1], the share remaining at 18 h was found to be 99% and the “% APA-Glu or -Asp” value is recorded as 1%. The “hydrolysis in human serum (in words)” value in data set [1] (18 hour incubation in human serum, HPLC) is on record as “no significant hydrolysis”.

Regarding `C/C=C(/C)C(=O)O[C@H]1C(C)=C2[C@H]([C@@H]1OC(=O)CCCCCCC)[C@@](C)(OC(C)=O)C[C@H](O)[C@@]1(O)[C@H]2OC(=O)[C@@]1(C)O` [8-O-debutanoylthapsigargin], the “LD50 (cytotoxic activity)” value in data set [5] was over 50 µM.

For the compound `Cc1c(CNc2ccc(Cl)c(C(=O)N[C@@H](CC(=O)O)C(=O)O)c2)ccc2nc(N)nc(N)c12.O.O` [NSC 132483, L-aspartic acid, N-[2-chloro-5-[[(2,4-diamino-5-methyl-6-quiazolinyl)methyl]amino]benzoyl]-dihydrate], the “Loss of clonogenic survival” value in data set [6] (0.01 μmolar) was 0%; in data set [6] (0.05 μmolar), 0%; in data set [6] (0.1 μmolar), 14%; in data set [6] (0.5 μmolar), 39%; in data set [6] (1 μmolar), 50%; in data set [6] (5 μmolar), 78%.

Consider `CN(Cc1cnc2nc(N)nc(N)c2n1)c1ccc(C(=O)N[C@@H](CC(=O)O)C(=O)N[C@@H](CCC(=O)N[C@@H](CCC(=O)N[C@@H](CC(=O)O)C(=O)N[C@@H](CCC(=O)O)C(=O)O)C(=O)O)C(=O)O)cc1` [APA-Asp-Glu*Glu*Asp-Glu], for which the “% APA-Glu or -Asp” value in data set [2] is on record as 2%. Moreover, in data set [1], the share remaining at 18 h stood at 100% and the “% APA-Glu or -Asp” value was 0%.

Turning to `CN(Cc1cnc2nc(N)nc(N)c2n1)c1ccc(C(=O)N[C@@H](CCC(=O)N[C@@H](CCC(=O)N[C@@H](CCC(=O)N[C@@H](CC(=O)O)C(=O)N[C@@H](CCC(N)=O)C(=O)O)C(=O)O)C(=O)O)C(=O)O)cc1` [APA-Glu*Glu*Glu*Asp-Gln], in data set [1], the fraction remaining at 18 h was 76% and the “% APA-Glu or -Asp” value amounted to 13%.
